A compilation of properties of binary mixtures (doi:10.1016/j.molliq.2021.115373)

Assay: xn = mol fraction of the nth substance listed
Settings: 101 kPa

CC[N+](C)(CC)CCOC.O=S(=O)([N-]S(=O)(=O)C(F)(F)F)C(F)(F)F + O=C1CCCO1
Settings | electrical conductivity [S/m] | viscosity [mPa·s]
288.15 K, x1 = 0.3003 | 0.818 | 14.42
288.15 K, x1 = 0.4007 | 0.638 | 21.86
288.15 K, x1 = 0.6999 | 0.342 | 87.8
288.15 K, x1 = 0.8001 | 0.271 | 118.2
288.15 K, x1 = 0.9003 | 0.189 | 159.3
288.15 K, x1 = 1 | 0.147 | 225
293.15 K, x1 = 0.2006 | 1.16 | 7.44
293.15 K, x1 = 0.4007 | 0.737 | 18.34
293.15 K, x1 = 0.6002 | 0.508 | 49.4
293.15 K, x1 = 0.6999 | 0.429 | 67.7
293.15 K, x1 = 0.8001 | 0.336 | 90
293.15 K, x1 = 0.9003 | 0.246 | 118.6
298.15 K, x1 = 0.2006 | 1.29 | 6.32
298.15 K, x1 = 0.3003 | 1.03 | 10.43
298.15 K, x1 = 0.4998 | 0.688 | 24.17
298.15 K, x1 = 0.6002 | 0.595 | 37.96
298.15 K, x1 = 0.6999 | 0.504 | 51.5
298.15 K, x1 = 0.8001 | 0.413 | 68.2
298.15 K, x1 = 0.9003 | 0.31 | 88.5
298.15 K, x1 = 1 | 0.24 | 119.2
303.15 K, x1 = 0.1004 | 1.41 | 2.972
303.15 K, x1 = 0.2006 | 1.45 | 5.4
303.15 K, x1 = 0.3003 | 1.16 | 8.87
303.15 K, x1 = 0.4007 | 0.956 | 12.54
303.15 K, x1 = 0.4998 | 0.791 | 19.36
303.15 K, x1 = 0.6002 | 0.688 | 29.46
303.15 K, x1 = 0.8001 | 0.488 | 51.5
303.15 K, x1 = 0.9003 | 0.382 | 67.4
308.15 K, x1 = 0.1004 | 1.52 | 2.401
308.15 K, x1 = 0.2006 | 1.59 | 4.634
308.15 K, x1 = 0.6002 | 0.786 | 23.31
308.15 K, x1 = 0.6999 | 0.693 | 30.64
308.15 K, x1 = 0.8001 | 0.576 | 39.71
308.15 K, x1 = 1 | 0.365 | 67.7
313.15 K, x1 = 0.3003 | 1.43 | 6.47
313.15 K, x1 = 0.4007 | 1.21 | 8.94
313.15 K, x1 = 0.4998 | 1.02 | 12.56
313.15 K, x1 = 0.6002 | 0.898 | 18.36
313.15 K, x1 = 0.6999 | 0.805 | 24.16
313.15 K, x1 = 0.9003 | 0.545 | 39.51
313.15 K, x1 = 1 | 0.44 | 53
318.15 K, x1 = 0.1004 | 1.77 | 1.55
318.15 K, x1 = 0.2006 | 1.92 | 3.357
318.15 K, x1 = 0.3003 | 1.57 | 5.5
318.15 K, x1 = 0.4007 | 1.35 | 7.5
318.15 K, x1 = 0.4998 | 1.15 | 10.47
318.15 K, x1 = 0.6999 | 0.916 | 19.03
318.15 K, x1 = 0.8001 | 0.782 | 24.04
318.15 K, x1 = 0.9003 | 0.645 | 30.79
318.15 K, x1 = 1 | 0.521 | 40.98
323.15 K, x1 = 0.1004 | 1.89 | 1.264
323.15 K, x1 = 0.3003 | 1.72 | 4.76
323.15 K, x1 = 0.6999 | 1.03 | 14.91
323.15 K, x1 = 0.8001 | 0.888 | 18.65
323.15 K, x1 = 0.9003 | 0.739 | 24.72
323.15 K, x1 = 1 | 0.609 | 33.06
328.15 K, x1 = 0.1004 | 2.02 | 1.025
328.15 K, x1 = 0.2006 | 2.22 | 2.567
328.15 K, x1 = 0.3003 | 1.88 | 4.154
328.15 K, x1 = 0.4007 | 1.64 | 5.51
328.15 K, x1 = 0.4998 | 1.44 | 7.25
328.15 K, x1 = 0.6999 | 1.15 | 11.99
328.15 K, x1 = 0.8001 | 1 | 14.94
328.15 K, x1 = 0.9003 | 0.844 | 19.43
333.15 K, x1 = 0.1004 | 2.15 | 0.838
333.15 K, x1 = 0.2006 | 2.38 | 2.237
333.15 K, x1 = 0.3003 | 2.07 | 3.578
333.15 K, x1 = 0.4998 | 1.59 | 6.07
333.15 K, x1 = 0.6002 | 1.42 | 7.65
333.15 K, x1 = 0.6999 | 1.29 | 9.72
333.15 K, x1 = 0.8001 | 1.12 | 11.69
333.15 K, x1 = 0.9003 | 0.956 | 16.5
338.15 K, x1 = 0.1004 | 2.27 | 0.686
338.15 K, x1 = 0.2006 | 2.56 | 1.957
338.15 K, x1 = 0.3003 | 2.24 | 3.117
338.15 K, x1 = 0.4007 | 1.99 | 4.059
338.15 K, x1 = 0.4998 | 1.75 | 5.21
338.15 K, x1 = 0.6002 | 1.56 | 6.3
338.15 K, x1 = 0.6999 | 1.41 | 7.76
338.15 K, x1 = 0.8001 | 1.24 | 9.36
338.15 K, x1 = 0.9003 | 1.07 | 13.36
338.15 K, x1 = 1 | 0.935 | 17.49
343.15 K, x1 = 0.1004 | 2.41 | 0.558
343.15 K, x1 = 0.2006 | 2.74 | 1.718
343.15 K, x1 = 0.4007 | 2.17 | 3.53
343.15 K, x1 = 0.6002 | 1.72 | 4.94
343.15 K, x1 = 0.6999 | 1.54 | 6.16
343.15 K, x1 = 0.8001 | 1.37 | 7.56
343.15 K, x1 = 0.9003 | 1.2 | 10.95
343.15 K, x1 = 1 | 1.05 | 14.91
348.15 K, x1 = 0.1004 | 2.56 | 0.458
348.15 K, x1 = 0.2006 | 2.91 | 1.517
348.15 K, x1 = 0.3003 | 2.63 | 2.346
348.15 K, x1 = 0.4998 | 2.12 | 3.777
348.15 K, x1 = 0.6002 | 1.88 | 4.265
348.15 K, x1 = 0.8001 | 1.5 | 6.13
348.15 K, x1 = 1 | 1.18 | 12.3
353.15 K, x1 = 0.1004 | 2.7 | 0.392
353.15 K, x1 = 0.4007 | 2.55 | 2.74
353.15 K, x1 = 0.4998 | 2.3 | 3.376
353.15 K, x1 = 0.6999 | 1.84 | 4.04
353.15 K, x1 = 0.8001 | 1.64 | 4.81
353.15 K, x1 = 1 | 1.31 | 10.28
